Converted amounts (≈) assume the structure as drawn.
Tests used:
Assay type in all cases: cell-based
[1] = tested on: Saccharomyces cerevisiae AY-14; experiment: Antifungal activity, growth inhibition (alamar Blue), Saccharomyces cerevisiae; conditions: GI80 versus drug non-addition growth
Experimental: (§1) Measuring method of the antifungal activities of the compounds of the present invention carried out in accordance with Japanese Journal of Medical Mycology, 40, 243-246, 1999, Japanese Society for Medical Mycology Standardization Committee, (alamar Blue), and the or 80% growth inhibition (GI50 or GI80) concentration (μg/ml) for drug non-addition growth as the positive control was measured.

[2] = tested on: Candida albicans ATCC MYA-573; experiment: Antifungal activity, growth inhibition (alamar Blue), Candida albicans; conditions: GI50 versus drug non-addition growth
Experimental: as §1

[3] = tested on: Candida glabrata ATCC 48435; experiment: Antifungal activity, growth inhibition (alamar Blue), Candida glabrata; conditions: GI80 versus drug non-addition growth
Experimental: as §1

[4] = tested on: Candida krusei ATCC 44507; experiment: Antifungal activity, growth inhibition (alamar Blue), Candida krusei; conditions: for GI50, 50% growth inhibition concentration, Candida krusei ATCC 44507: GI50 versus drug non-addition growth
Experimental: as §1

Row | Compound | GI50, 50% growth inhibition concentration, Candida albicans ATCC MYA-573 [2] | GI50, 50% growth inhibition concentration, Candida krusei ATCC 44507 [4] | GI80, 80% growth inhibition concentration, Saccharomyces cerevisiae AY-14 [1] | GI80, 80% growth inhibition concentration, Candida glabrata ATCC 48435 [3] | GI50 ([2]; read-out: GI50, 50% growth inhibition concentration, Candida albicans ATCC MYA-573) | GI50 ([4]; Pichia kudriavzevii, ATCC44507, GI50 versus drug non-addition growth, read-out: GI50, 50% growth inhibition concentration, Candida krusei ATCC 44507)
1 | Cc1c(-c2ccccc2)c(N2CC[C@H](N(C)C)C2)n2cc(C(C)C)nc2c1C#N [Example 8] | 1 µg/mL (≈ 2.58 µM) | >4 µg/mL | 2 µg/mL (≈ 5.16 µM) | 0.125 µg/mL (≈ 0.323 µM) | – | –
2 | Cc1c(-c2ccccc2)c(N2CC[C@H](N(C)C)C2)n2nc(C(C)(C)COCc3ccccc3)nc2c1C#N [Example 39] | 0.5 µg/mL (≈ 0.983 µM) | >4 µg/mL | 0.063 µg/mL (≈ 0.124 µM) | 0.25 µg/mL (≈ 0.491 µM) | – | –
3 | OC(Cn1cncn1)(Cn1cncn1)c1ccc(F)cc1F [Fluconazole, reference compound] | – | – | 4 µg/mL (≈ 13.1 µM) | 4 µg/mL (≈ 13.1 µM) | > 4 µg/mL | > 4 µg/mL

Second part, led by results:

Row | GI50, 50% growth inhibition concentration, Candida albicans ATCC MYA-573 [2] | GI50, 50% growth inhibition concentration, Candida krusei ATCC 44507 [4] | Compound | GI80, 80% growth inhibition concentration, Saccharomyces cerevisiae AY-14 [1] | GI80, 80% growth inhibition concentration, Candida glabrata ATCC 48435 [3] | GI50 ([2]; read-out: GI50, 50% growth inhibition concentration, Candida albicans ATCC MYA-573) | GI50 ([4]; Pichia kudriavzevii, ATCC44507, GI50 versus drug non-addition growth, read-out: GI50, 50% growth inhibition concentration, Candida krusei ATCC 44507)
4 | 0.25 µg/mL (≈ 0.623 µM) | >4 µg/mL | Cc1c(-c2ccccc2)c(N2CC[C@H](N(C)C)C2)n2cc(C(C)(C)C)nc2c1C#N [Example 9, (3′S)-2-tert-Butyl-5-(3-dimethylaminopyrrolidin-1-yl)-7-methyl-6-phenylimidazo[1,2-a]pyridine-8-carbonitrile] | 0.125 µg/mL (≈ 0.311 µM) | 0.25 µg/mL (≈ 0.623 µM) | – | –
5 | 4 µg/mL (≈ 9.94 µM) | >4 µg/mL | Cc1c(-c2ccccc2)c(N2CC[C@H](N(C)C)C2)n2nc(C(C)(C)C)nc2c1C#N [Example 25] | 0.063 µg/mL (≈ 0.157 µM) | 0.125 µg/mL (≈ 0.311 µM) | – | –
6 | 4 µg/mL (≈ 10.3 µM) | 4 µg/mL (≈ 10.3 µM) | C=C(C)c1nc2c(C#N)c(C)c(-c3ccccc3)c(N3CC[C@H](N(C)C)C3)n2n1 [Example 33] | 0.004 µg/mL (≈ 0.0103 µM) | 0.008 µg/mL (≈ 0.0207 µM) | – | –
7 | 4 µg/mL (≈ 9.96 µM) | 4 µg/mL (≈ 9.96 µM) | Cc1c(-c2ccccc2)c(N2CC[C@H](N(C)C)C2)n2nc(C(C)(C)C)cc2c1C#N [Example 62] | 2 µg/mL (≈ 4.98 µM) | 2 µg/mL (≈ 4.98 µM) | – | –

Source: patent US20070191395A1 (priority 2004, published 2007)
